The series concerns CCRIS mutagenicity, Ames/micronucleus/aberration tests. The experiment in a line: CCRIS mutagenicity studies.
Where [1] appears, read: Test System: AMES SALMONELLA TYPHIMURIUM, Strain/Indicator: TA98, Metabolic Activation: NONE, Method: PREINCUBATION
[2] abbreviates: Test System: AMES SALMONELLA TYPHIMURIUM, Strain/Indicator: TA100, Metabolic Activation: NONE, Method: PREINCUBATION
Setting [3] is: Test System: Mouse lymphoma, Strain/Indicator: L5178Y (tk+/tk-), Metabolic Activation: None, Method: Suspension/plate.

Molecules are shown by their SMILES. Active and inactive are the calls of the source. No rule for the calls is given here.

As for `O=[N+]([O-])c1ccc2oc3ccccc3c2c1`, the mutagenic call (Test System: AMES SALMONELLA TYPHIMURIUM, Strain/Indicator: TA98(1,8-DNP6), Metabolic Activation: NONE, Method: PREINCUBATION) was “active; positive”; the mutagenic call (Test System: AMES SALMONELLA TYPHIMURIUM, Strain/Indicator: TA98(1,8-DNP6), Metabolic Activation: NONE, Method: SUSPENSION) was “active; positive”; the mutagenic call (Test System: AMES SALMONELLA TYPHIMURIUM, Strain/Indicator: TA98(1,8-DNP6), Metabolic Activation: RAT, LIVER, S-9, PCB (5%), Method: PREINCUBATION) is “active; positive”; the mutagenic call (Test System: AMES SALMONELLA TYPHIMURIUM, Strain/Indicator: TA98(NR), Metabolic Activation: NONE, Method: PREINCUBATION) is “active; positive”; the mutagenic call (Test System: AMES SALMONELLA TYPHIMURIUM, Strain/Indicator: TA98(NR), Metabolic Activation: NONE, Method: SUSPENSION) was “inactive; negative”; the mutagenic call (Test System: AMES SALMONELLA TYPHIMURIUM, Strain/Indicator: TA98(NR), Metabolic Activation: RAT, LIVER, S-9 (10%), Method: PREINCUBATION) was “active; positive”. Also, the mutagenic call is “active; positive” (Test System: AMES SALMONELLA TYPHIMURIUM, Strain/Indicator: TA98(NR), Metabolic Activation: RAT, LIVER, S-9, 3-METHYLCHOLANTHRENE (10%), Method: PREINCUBATION); “active; positive” (Test System: AMES SALMONELLA TYPHIMURIUM, Strain/Indicator: TA98(NR), Metabolic Activation: RAT, LIVER, S-9, BETA-NAPHTHOFLAVONE (10%), Method: PREINCUBATION); “active; positive” (Test System: AMES SALMONELLA TYPHIMURIUM, Strain/Indicator: TA98(NR), Metabolic Activation: RAT, LIVER, S-9, PCB (5%), Method: PREINCUBATION); “active; positive” (Test System: AMES SALMONELLA TYPHIMURIUM, Strain/Indicator: TA98(NR), Metabolic Activation: RAT, LIVER, S-9, PCB (10%), Method: PREINCUBATION); “active; positive” (Test System: AMES SALMONELLA TYPHIMURIUM, Strain/Indicator: TA98(NR), Metabolic Activation: RAT, LIVER, S-9, PHENOBARBITAL (10%), Method: PREINCUBATION); “active; positive” under setting [1]. Also, the mutagenic call was “active; positive” (Test System: AMES SALMONELLA TYPHIMURIUM, Strain/Indicator: TA98, Metabolic Activation: NONE, Method: SUSPENSION); “active; positive” (Test System: AMES SALMONELLA TYPHIMURIUM, Strain/Indicator: TA98, Metabolic Activation: RAT, LIVER, S-9, PCB (5%), Method: PREINCUBATION); “active; positive” (Test System: AMES SALMONELLA TYPHIMURIUM, Strain/Indicator: TA98, Metabolic Activation: RAT, LIVER, S-9, PCB, Method: SUSPENSION); “inactive; negative” under setting [2]; “inactive; negative” (Test System: AMES SALMONELLA TYPHIMURIUM, Strain/Indicator: TA100, Metabolic Activation: NONE, Method: SUSPENSION); “inactive; negative” (Test System: AMES SALMONELLA TYPHIMURIUM, Strain/Indicator: TA100, Metabolic Activation: RAT, LIVER, S-9, PCB (5%), Method: PREINCUBATION). Moreover, the mutagenic call (Test System: AMES SALMONELLA TYPHIMURIUM, Strain/Indicator: TA100, Metabolic Activation: RAT, LIVER, S-9, PCB, Method: SUSPENSION) was “inactive; negative”.
Turning to `O=C1CCCc2cc3c(cc21)c([N+](=O)[O-])cc1ccccc13`, the mutagenic call (Test System: AMES SALMONELLA TYPHIMURIUM, Strain/Indicator: TA98-1,8-DNP6, Metabolic Activation: NONE) was “inactive; negative”; the mutagenic call (Test System: AMES SALMONELLA TYPHIMURIUM, Strain/Indicator: TA98-1,8-DNP6, Metabolic Activation: S-9) is “inactive; negative”; the mutagenic call (Test System: AMES SALMONELLA TYPHIMURIUM, Strain/Indicator: TA98, Metabolic Activation: NONE) was “active; positive”; the mutagenic call (Test System: AMES SALMONELLA TYPHIMURIUM, Strain/Indicator: TA98, Metabolic Activation: S-9) is “active; positive”; the mutagenic call (Test System: AMES SALMONELLA TYPHIMURIUM, Strain/Indicator: TA98NR, Metabolic Activation: NONE) was “inactive; negative”; the mutagenic call (Test System: AMES SALMONELLA TYPHIMURIUM, Strain/Indicator: TA98NR, Metabolic Activation: S-9) is “inactive; negative”. The mutagenic call is “active; positive” (Test System: AMES SALMONELLA TYPHIMURIUM, Strain/Indicator: TA100, Metabolic Activation: NONE); “active; positive” (Test System: AMES SALMONELLA TYPHIMURIUM, Strain/Indicator: TA100, Metabolic Activation: S-9); “active; positive” (Test System: AMES SALMONELLA TYPHIMURIUM, Strain/Indicator: TA100NR, Metabolic Activation: NONE); “active; positive” (Test System: AMES SALMONELLA TYPHIMURIUM, Strain/Indicator: TA100NR, Metabolic Activation: S-9).
Turning to `CC(C)=CCl`, the mutagenic call is, setting by setting: (End Point: IN VITRO CHROMOSOMAL ABERRATIONS, Test System: CHO CELLS, Metabolic Activation: NONE) “inactive; negative”; (End Point: IN VITRO CHROMOSOMAL ABERRATIONS, Test System: CHO CELLS, Metabolic Activation: RAT, LIVER, S-9, AROCLOR 1254) “inactive; negative”; (Test System: AMES SALMONELLA TYPHIMURIUM, Strain/Indicator: TA98, Metabolic Activation: HAMSTER, LIVER, S-9, AROCLOR 1254 (10%), Method: PREINCUBATION) “inactive; negative”; under setting [1], “inactive; negative”; (Test System: AMES SALMONELLA TYPHIMURIUM, Strain/Indicator: TA98, Metabolic Activation: RAT, LIVER, S-9, AROCLOR 1254 (10%), Method: PREINCUBATION) “inactive; negative”; (Test System: AMES SALMONELLA TYPHIMURIUM, Strain/Indicator: TA100, Metabolic Activation: HAMSTER, LIVER, S-9, AROCLOR 1254 (10%), Method: PREINCUBATION) “inactive; negative”. Further, the mutagenic call is, setting by setting: under setting [2], “inactive; negative”; (Test System: AMES SALMONELLA TYPHIMURIUM, Strain/Indicator: TA100, Metabolic Activation: RAT, LIVER, S-9, AROCLOR 1254 (10%), Method: PREINCUBATION) “inactive; negative”; (Test System: AMES SALMONELLA TYPHIMURIUM, Strain/Indicator: TA102, Metabolic Activation: RAT, LIVER, S-9, PHENOBARBITAL AND 5,6-BENZOFLAVONE, Method: STANDARD PLATE) “inactive; negative”; (Test System: AMES SALMONELLA TYPHIMURIUM, Strain/Indicator: TA1535, Metabolic Activation: HAMSTER, LIVER, S-9, AROCLOR 1254 (10%), Method: PREINCUBATION) “inactive; negative”; (Test System: AMES SALMONELLA TYPHIMURIUM, Strain/Indicator: TA1535, Metabolic Activation: NONE, Method: PREINCUBATION) “inactive; negative”; (Test System: AMES SALMONELLA TYPHIMURIUM, Strain/Indicator: TA1535, Metabolic Activation: RAT, LIVER, S-9, AROCLOR 1254 (10%), Method: PREINCUBATION) “inactive; negative”. For the same compound, the mutagenic call runs as follows: (Test System: AMES SALMONELLA TYPHIMURIUM, Strain/Indicator: TA1537, Metabolic Activation: HAMSTER, LIVER, S-9, AROCLOR 1254 (10%), Method: PREINCUBATION) “inactive; negative”; (Test System: AMES SALMONELLA TYPHIMURIUM, Strain/Indicator: TA1537, Metabolic Activation: NONE, Method: PREINCUBATION) “inactive; negative”; (Test System: AMES SALMONELLA TYPHIMURIUM, Strain/Indicator: TA1537, Metabolic Activation: RAT, LIVER, S-9, AROCLOR 1254 (10%), Method: PREINCUBATION) “inactive; negative”; (Test System: AMES SALMONELLA TYPHIMURIUM, Strain/Indicator: TA2638, Metabolic Activation: RAT, LIVER, S-9, PHENOBARBITAL AND 5,6-BENZOFLAVONE, Method: STANDARD PLATE) “inactive; negative”; (Test System: E. COLI, Strain/Indicator: WP2 (PKM101), Metabolic Activation: RAT, LIVER, S-9, PHENOBARBITAL AND 5,6-BENZOFLAVONE, Method: STANDARD PLATE) “inactive; negative”; (Test System: E. COLI, Strain/Indicator: WP2 UVRA (PKM101), Metabolic Activation: RAT, LIVER, S-9, PHENOBARBITAL AND 5,6-BENZOFLAVONE, Method: STANDARD PLATE) “inactive; negative”. The mutagenic call was “active; positive. reevaluation of results: positive” (Test System: MOUSE LYMPHOMA, Strain/Indicator: L5178Y (TK+/TK-), Metabolic Activation: RAT, LIVER, S-9, AROCLOR 1254, Method: SUSPENSION/PLATE) and “inactive; negative” under setting [3].
In the case of `O=C1/C(=N\Nc2ccc(/C=C/c3ccc(N/N=C4/C=C(S(=O)(=O)O)c5cccnc5C4=O)cc3S(=O)(=O)O)c(S(=O)(=O)O)c2)C=C(S(=O)(=O)O)c2cccnc21`, the mutagenic call reads like this: under setting [3], “inactive; negative”; (Test System: Mouse lymphoma, Strain/Indicator: L5178Y (tk+/tk-), Metabolic Activation: Rat, Liver, S-9, Aroclor 1254, Method: Suspension/plate) “inactive; negative”.

Values taken from PubChem BioAssay AID1259407 (Chemical Carcinogenesis Research Information System (CCRIS), 2018).
